Our source for the Dmax and DC50 values is patent publication US12624044B2, “SMARCA degraders and uses thereof” (Kymera Therapeutics, Inc., priority 2019, dated 2026).

A value given as a limit tells only on which side of the number the result lay.

For one assay, the target named is T1, SMARCA4 (Homo sapiens, UniProt P51532).
T1 construct: SMARCA2 and SMARCA4 protein degradation in MV4-11 cells; endogenous in cells; host or cells: MV4-11
In words: SMARCA4 Western blot MV4-11 degradation. Type of assay: cell-based. The following applies: 24 h; for Dmax: MV4-11, MV4-11 cells, read-out: SMARCA4 WB MV411 degradation 24 h: Average Dmax %; for DC50: MV4-11 cells, read-out: SMARCA4 WB MV411 degradation 24 h: Average external-Abs DC50. The protocol: Cells were seeded into 6-well plates (MV4-11: 4×10^6 cells/well/1 ml) and 1 ml of 2× compound solution was added into the well to make the final concentration and the plates were mixed well and incubated for 24 hours (No cytotoxicity was observed). The cell were collected with media and spun at 3000 rpm for 5 minutes. The supernatant was aspirated and the well and the cells were washed with cold PBS once and combined for centrifugation again; the supernatant aspirated again. 200 ul pre-chilled RIPAlysis buffer (Boston BioProducts BP-115D) with protease/phosphatase inhibitor (Roche 05892791001/Roche 04906837001) was directly added into the tube to lyze the cells for 20 minutes on ice. The cell lysate were collected into EP tubes and spun at 13000 rpm for 20 minutes and 72 ul supernatant was transferred to a fresh EP tube containing 18 ul of 5× loading buffer (Beyotime Bio P0015) to make the loading samples. The samples were heated to 100° C. for 10 minutes and cooled to RT and microcentrifuged. 20 ul of samples were loaded onto SDS-PAGE gel (Novex, WG1402BOX) and the gel was run at 80 V for 20 minutes and 120 V for 1.5 hours. The samples were electrotransfer to a NC membrane using wet-transfer method with 250 mA for 2.5 hours. The membrane was blocked with LICOR blocking buffer (LI-COR, 927-50000) for 1 hour. The membrane was washed three times with TBST (CST #9997S), 5 minutes each. Incubation was performed with primary antibody prepared in blocking buffer with 0.1% Tween-20 (Solarbio, P8220) at 4° C. overnight (Anti-SMARCA2/BRM antibody (ab15597) 1:500; Anti-BRG1 antibody [EPR3912] (ab108318) 1:1000; Rabbit anti-Baf180 antibody [EPR15860] (Abcam, ab196022) 1:1000; mouse anti-beta-Actin (8H10D10) (CST #3700) 1:10000). The membrane was washed three times with TBST, 5 minutes each. Incubation with secondary antibody was performed for 1 hour at RT (anti-rabbit IgG (Licor, 926-32211) 1:5000; anti-mouse IgG (LI-COR, 926-68070) 1:5000). The membrane was washed three times with TBST, 5 minutes each and lastly the LiCOR was read.
The letter codes for the percentage of SMARCA degradation after 24 hours (Dmax %) include: A (>90% degradation), B (>70-90% degradation), C (50-70% degradation), and D (<50% degradation).
(In general: A western blot detects proteins with antibodies after separation by electrophoresis.)

The next assay deals with SMARCA2 (Homo sapiens, UniProt P51531). The assay can be described thus: MSD SMARCA2 degradation in NCI-H1299 cell line (24 h). Type of assay: cell-based. Also noted: HC: NCI-H1299 cells treated with DMSO; host or cells: NCI-H1299. The settings on record: for Dmax: NCI-H1299, NCI-H1299 cells; for DC50: NCI-H1299 cells, read-out: SMARCA2 MSD H1299 degradation 24 h: External Abs-DC50. An outline of the steps: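 SMARCA2 measured by MSD electrochemiluminescence (primary 0.3 ug/ml, secondary 1 ug/ml) on lysates from NCI-H1299 cells exposed to compounds for 24 h across nine 3-fold dilutions. Signal scaled from A2780 cells (no SMARCA2) to DMSO-treated H1299 controls, and maximal degradation after 24 h reported in letter categories.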

What is called Dmax is the largest share of the target that was removed. As usually defined, the DC50 is the concentration at which degradation of the target reaches its halfway point.

Chain of SMARCA2 (P51531 whole entry): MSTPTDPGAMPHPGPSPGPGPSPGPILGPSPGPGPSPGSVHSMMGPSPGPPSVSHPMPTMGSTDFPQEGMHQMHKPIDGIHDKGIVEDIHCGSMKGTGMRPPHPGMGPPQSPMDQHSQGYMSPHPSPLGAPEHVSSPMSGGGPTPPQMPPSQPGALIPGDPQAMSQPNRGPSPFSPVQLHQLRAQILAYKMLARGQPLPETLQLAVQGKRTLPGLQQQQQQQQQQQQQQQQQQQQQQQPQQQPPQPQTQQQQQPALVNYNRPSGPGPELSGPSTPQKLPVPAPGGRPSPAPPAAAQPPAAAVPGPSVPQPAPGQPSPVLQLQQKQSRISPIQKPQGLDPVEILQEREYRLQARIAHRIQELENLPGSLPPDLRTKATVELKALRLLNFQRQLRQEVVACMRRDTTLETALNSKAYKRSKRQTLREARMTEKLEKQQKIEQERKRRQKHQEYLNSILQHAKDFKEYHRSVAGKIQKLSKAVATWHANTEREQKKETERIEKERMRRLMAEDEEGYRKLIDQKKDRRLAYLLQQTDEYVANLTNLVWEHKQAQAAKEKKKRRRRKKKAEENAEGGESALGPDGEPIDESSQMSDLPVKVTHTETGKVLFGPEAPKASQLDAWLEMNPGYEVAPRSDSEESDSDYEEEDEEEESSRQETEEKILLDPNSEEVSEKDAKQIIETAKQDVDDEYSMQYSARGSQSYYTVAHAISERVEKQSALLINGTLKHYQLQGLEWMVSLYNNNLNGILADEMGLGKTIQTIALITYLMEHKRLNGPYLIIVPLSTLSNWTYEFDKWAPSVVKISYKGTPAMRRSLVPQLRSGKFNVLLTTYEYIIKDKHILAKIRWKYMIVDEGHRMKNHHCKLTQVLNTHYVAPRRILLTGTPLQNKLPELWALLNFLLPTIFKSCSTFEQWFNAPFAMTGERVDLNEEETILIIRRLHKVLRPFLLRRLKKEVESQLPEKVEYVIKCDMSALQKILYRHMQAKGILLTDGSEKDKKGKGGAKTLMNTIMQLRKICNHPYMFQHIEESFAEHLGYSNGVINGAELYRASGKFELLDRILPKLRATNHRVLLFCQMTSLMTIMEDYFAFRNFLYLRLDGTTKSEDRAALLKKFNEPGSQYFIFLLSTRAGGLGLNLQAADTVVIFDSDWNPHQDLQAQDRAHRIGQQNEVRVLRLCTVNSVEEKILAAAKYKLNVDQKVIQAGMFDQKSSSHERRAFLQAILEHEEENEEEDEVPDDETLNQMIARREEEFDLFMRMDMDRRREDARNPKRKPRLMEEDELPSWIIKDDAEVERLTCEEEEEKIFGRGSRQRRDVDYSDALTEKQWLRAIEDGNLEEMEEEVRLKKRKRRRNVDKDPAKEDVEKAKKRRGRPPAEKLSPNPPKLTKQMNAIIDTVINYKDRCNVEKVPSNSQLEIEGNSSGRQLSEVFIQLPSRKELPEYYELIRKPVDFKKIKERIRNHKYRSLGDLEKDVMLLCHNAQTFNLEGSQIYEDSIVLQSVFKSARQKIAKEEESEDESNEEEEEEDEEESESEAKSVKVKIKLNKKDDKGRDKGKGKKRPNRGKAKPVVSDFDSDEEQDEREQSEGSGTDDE
T1 sequence (P51532 whole entry): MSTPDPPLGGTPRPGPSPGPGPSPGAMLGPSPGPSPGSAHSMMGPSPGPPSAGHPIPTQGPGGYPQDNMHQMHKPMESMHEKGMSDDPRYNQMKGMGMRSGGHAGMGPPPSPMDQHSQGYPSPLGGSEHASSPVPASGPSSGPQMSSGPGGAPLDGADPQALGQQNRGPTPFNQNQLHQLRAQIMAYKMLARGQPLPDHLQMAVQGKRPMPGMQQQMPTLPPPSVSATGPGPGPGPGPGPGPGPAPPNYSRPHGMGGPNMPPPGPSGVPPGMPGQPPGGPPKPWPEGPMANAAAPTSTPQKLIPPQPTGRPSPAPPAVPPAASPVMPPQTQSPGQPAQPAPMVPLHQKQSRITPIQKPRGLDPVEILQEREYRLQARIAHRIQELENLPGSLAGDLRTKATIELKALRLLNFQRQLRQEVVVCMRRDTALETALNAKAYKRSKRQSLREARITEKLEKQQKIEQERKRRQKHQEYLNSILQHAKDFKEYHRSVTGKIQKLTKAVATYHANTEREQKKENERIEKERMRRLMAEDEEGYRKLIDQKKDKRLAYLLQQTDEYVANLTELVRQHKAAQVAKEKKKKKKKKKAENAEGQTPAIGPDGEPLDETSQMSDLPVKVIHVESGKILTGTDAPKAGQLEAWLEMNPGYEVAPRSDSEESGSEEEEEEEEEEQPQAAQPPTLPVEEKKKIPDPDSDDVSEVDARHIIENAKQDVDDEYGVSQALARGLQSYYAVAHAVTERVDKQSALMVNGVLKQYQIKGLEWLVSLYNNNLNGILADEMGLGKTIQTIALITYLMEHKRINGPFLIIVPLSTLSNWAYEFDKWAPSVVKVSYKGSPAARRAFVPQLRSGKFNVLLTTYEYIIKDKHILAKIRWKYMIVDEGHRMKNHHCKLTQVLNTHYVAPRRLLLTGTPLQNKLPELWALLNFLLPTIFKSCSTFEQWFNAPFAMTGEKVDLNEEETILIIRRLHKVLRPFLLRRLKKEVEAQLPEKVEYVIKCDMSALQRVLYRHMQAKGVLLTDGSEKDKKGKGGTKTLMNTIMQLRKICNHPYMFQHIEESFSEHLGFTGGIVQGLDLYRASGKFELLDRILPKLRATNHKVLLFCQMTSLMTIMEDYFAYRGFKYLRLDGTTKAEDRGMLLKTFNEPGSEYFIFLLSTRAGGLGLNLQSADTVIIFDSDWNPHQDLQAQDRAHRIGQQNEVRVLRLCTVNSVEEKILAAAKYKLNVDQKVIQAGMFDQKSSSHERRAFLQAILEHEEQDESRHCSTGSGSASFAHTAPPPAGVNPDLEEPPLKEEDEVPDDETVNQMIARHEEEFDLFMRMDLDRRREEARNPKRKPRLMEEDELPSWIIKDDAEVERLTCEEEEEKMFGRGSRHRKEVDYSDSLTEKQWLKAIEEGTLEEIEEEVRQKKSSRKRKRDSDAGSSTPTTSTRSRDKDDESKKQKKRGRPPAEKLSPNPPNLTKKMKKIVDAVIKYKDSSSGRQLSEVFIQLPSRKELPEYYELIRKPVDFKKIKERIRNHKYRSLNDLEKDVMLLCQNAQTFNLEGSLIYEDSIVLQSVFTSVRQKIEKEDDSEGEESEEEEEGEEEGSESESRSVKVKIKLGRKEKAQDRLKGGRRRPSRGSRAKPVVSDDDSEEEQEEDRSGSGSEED

As for `Cc1ncsc1-c1ccc(CNC(=O)[C@@H]2C[C@@H](O)CN2C(=O)[C@@H](NC(=O)CN2CCC(n3cc(-c4cc(-c5ccccc5O)nnc4N)cn3)CC2)C(C)(C)C)cc1` [I-457], at SMARCA4, the Dmax fell in the range of 70 to 90% and the 50% degradation concentration (DC50) was in the range of 100 to 500 nM. In addition, on SMARCA2, the Dmax fell in the range of 70 to 90% and the DC50 is 501 to 1000 nM.

On to `Cc1ncsc1-c1ccc(CNC(=O)[C@@H]2C[C@@H](O)CN2C(=O)[C@@H](NC(=O)CCCCCN2CCCC(n3cc(-c4cc(-c5ccccc5O)nnc4N)cn3)C2)C(C)(C)C)cc1` (some centres unmarked) [I-456], for which, on SMARCA4, the Dmax was under 50% and the DC50 was 100 to 500 nM. Moreover, at SMARCA2, the Dmax was under 50% and the DC50 is over 1000 nM.

For the compound `CN(CCCc1cnc(N2C3CCC2CN(c2cc(-c4ccccc4O)nnc2N)C3)nc1)Cc1cccc2c1n(C)c(=O)n2C1CCC(=O)NC1=O` (centres unmarked) [I-299], the Dmax on SMARCA4 and at SMARCA2 was over 90% each time. In addition, the DC50 on SMARCA4 and on SMARCA2 was under 100 nM in each case.

As to `Cc1ncsc1-c1ccc(CNC(=O)[C@@H]2C[C@@H](O)CN2C(=O)[C@@H](NC(=O)CCCCN2CCC(Cn3cc(-c4cc(-c5ccccc5O)nnc4N)cn3)CC2)C(C)(C)C)cc1` [I-468], on SMARCA4, the Dmax was under 50% and the DC50 was in the range of 100 to 500 nM. For the same compound, on SMARCA2, the Dmax was under 50% and the DC50 was over 1000 nM.

In the case of `Cn1c(=O)n(C2CCC(=O)NC2=O)c2ccc(CCC(=O)N3CCC(c4cnc(N5C6CCC5CN(c5cc(-c7ccccc7O)nnc5N)C6)nc4)CC3)cc21` (centres unmarked) [I-286], the Dmax was over 90% at SMARCA4 and 70 to 90% on SMARCA2. The DC50 on SMARCA4 was under 100 nM; on SMARCA2, 100 to 500 nM.

For the compound `Cn1c(=O)n(C2CCC(=O)NC2=O)c2ccc(CCCN3CCCC(c4cnc(N5C6CCC5CN(c5cc(-c7ccccc7O)nnc5N)C6)nc4)C3)cc21` (centres unmarked) [I-289], the Dmax was in the range of 50 to 70% on SMARCA4 and 70 to 90% at SMARCA2. The DC50 on SMARCA4 and on SMARCA2 was under 100 nM each time.

For the compound `Cn1c(=O)n(C2CCC(=O)NC2=O)c2ccc(CCCN3CCC(c4cnc(N5CCN(c6cc(-c7ccccc7O)nnc6N)CC5)nc4)CC3)cc21` (centres unmarked) [I-288], on SMARCA4, the Dmax was over 90% and the DC50 was under 100 nM. At SMARCA2, the Dmax was over 90% and the DC50 is under 100 nM.

On to `Cc1ncsc1-c1ccc(CNC(=O)[C@@H]2C[C@@H](O)CN2C(=O)[C@@H](NC(=O)CN2CCC(c3cnc(N4CCN(c5cc(-c6ccccc6O)nnc5N)CC4)nc3)CC2)C(C)(C)C)cc1` [I-451], for which the results for the Dmax on SMARCA4 and at SMARCA2 were 70 to 90% and over 90%, respectively. Moreover, the half-maximal degradation concentration (DC50) at SMARCA4 and on SMARCA2 was 100 to 500 nM each time.

For `Cn1c(=O)n(C2CCC(=O)NC2=O)c2ccc(CCN3CCN(C(=O)c4cnc(N5C6CCC5CN(c5cc(-c7ccccc7O)nnc5N)C6)nc4)CC3)cc21` (centres unmarked) [I-293, 3-(5-(2-(4-(2-(3-(3-amino-6-(2-hydroxyphenyl)pyridazin-4-yl)-3,8-diazabicyclo[3.2.1]octan-8-yl)pyrimidine-5-carbonyl)piperazin-1-yl)ethyl)-3-methyl-2-oxo-2,3-dihydro-1H-benzo[d]imidazol-1-yl)piperidine-2,6-dione], the Dmax on SMARCA4 and on SMARCA2 was over 90% throughout. Further, the 50% degradation concentration (DC50) on SMARCA4 and on SMARCA2 was under 100 nM in each case.

For the compound `Cn1c(=O)n(C2CCC(=O)NC2=O)c2cccc(CCCN3CCCC(c4cnc(N5C6CCC5CN(c5cc(-c7ccccc7O)nnc5N)C6)nc4)C3)c21` (centres unmarked) [I-292], the Dmax at SMARCA4 and at SMARCA2 was over 90% each time. In addition, the DC50 on SMARCA4 and at SMARCA2 was under 100 nM throughout.

As for `Cn1c(=O)n(C2CCC(=O)NC2=O)c2ccc(CC(=O)N3CCN(Cc4cnc(N5C6CCC5CN(c5cc(-c7ccccc7O)nnc5N)C6)nc4)CC3)cc21` (centres unmarked) [I-294], at SMARCA4, the maximal degradation (Dmax) was over 90% and the DC50 is under 100 nM. At SMARCA2, the Dmax was over 90% and the DC50 was under 100 nM.

Regarding `Cn1c(=O)n(C2CCC(=O)NC2=O)c2ccc(CCCCCCCCCNC(=O)c3cccc(C#Cc4cc(NC(=O)Nc5ccnc(Cl)c5)ccn4)c3)cc21` (centres unmarked) [I-301, 3-[2-[4-[(2-chloro-4-pyridyl)carbamoylamino]-2-pyridyl]ethynyl]-N-[9-[1-(2,6-dioxo-3-piperidyl)-3-methyl-2-oxo-benzimidazol-5-yl]nonyl]benzamide], the Dmax on SMARCA4 and on SMARCA2 was under 50% throughout. For the same compound, the DC50 on SMARCA4 and at SMARCA2 was 100 to 500 nM in each case.

With `Cc1ncsc1-c1ccc(CNC(=O)[C@@H]2C[C@@H](O)CN2C(=O)[C@@H](NC(=O)CN2CCC[C@@H](Cn3cc(-c4cc(-c5ccccc5O)nnc4N)cn3)C2)C(C)(C)C)cc1` [I-469], on SMARCA4, the Dmax lay in the range of 50 to 70% and the DC50 is 100 to 500 nM. Moreover, at SMARCA2, the Dmax is under 50% and the DC50 was 100 to 500 nM.

On to `CN1C(=O)CCC(n2c(=O)n(C)c3cc(CCCN4CCC(c5cnc(N6C7CCC6CN(c6cc(-c8ccccc8O)nnc6N)C7)nc5)CC4)ccc32)C1=O` (centres unmarked) [I-297], for which the Dmax on SMARCA4 was under 50%. Besides, on SMARCA2, the Dmax was under 50% and the DC50 is over 1000 nM.

Consider `CN(Cc1cnc(N2C3CCC2CN(c2cc(-c4ccccc4O)nnc2N)C3)nc1)CC1CCN(c2ccc3c(c2)n(C)c(=O)n3C2CCC(=O)NC2=O)CC1` (centres unmarked) [I-282, 3-(5-(4-((((2-(3-(3-amino-6-(2-hydroxyphenyl)pyridazin-4-yl)-3,8-diazabicyclo[3.2.1]octan-8-yl)pyrimidin-5-yl)methyl)(methyl)amino)methyl)piperidin-1-yl)-3-methyl-2-oxo-2,3-dihydro-1H-benzo[d]imidazol-1-yl)piperidine-2,6-dione], for which, on SMARCA4, the Dmax was over 90% and the DC50 is under 100 nM. In addition, on SMARCA2, the Dmax is over 90% and the DC50 was under 100 nM.

Turning to `Cn1c(=O)n(C2CCC(=O)NC2=O)c2cccc(C#CCN3CCCC(c4cnc(N5C6CCC5CN(c5cc(-c7ccccc7O)nnc5N)C6)nc4)C3)c21` (centres unmarked) [I-300], on SMARCA4, the Dmax is 70 to 90% and the 50% degradation concentration (DC50) was under 100 nM. Besides, at SMARCA2, the maximal degradation (Dmax) is over 90% and the DC50 was under 100 nM.

In the case of `Cc1ncsc1-c1ccc(CNC(=O)[C@@H]2C[C@@H](O)CN2C(=O)[C@@H](NC(=O)CCCCCN2CCC(n3cc(-c4cc(-c5ccccc5O)nnc4N)cn3)CC2)C(C)(C)C)cc1` [I-461], on SMARCA4, the Dmax was 50 to 70% and the DC50 was in the range of 100 to 500 nM. Further, on SMARCA2, the greatest degradation seen (Dmax) was in the range of 50 to 70% and the DC50 is 501 to 1000 nM.

`NCC#Cc1cnc(N2C3CCC2CN(c2cc(-c4ccccc4O)nnc2N)C3)nc1` [I-535, 2-[6-amino-5-[8-[5-(3-aminoprop-1-ynyl)pyrimidin-2-yl]-3,8-diazabicyclo[3.2.1]octan-3-yl]pyridazin-3-yl]phenol]: on SMARCA4, the Dmax was under 50% and the DC50 is under 100 nM. Moreover, on SMARCA2, the Dmax is under 50% and the DC50 was over 1000 nM.

`Cc1ncsc1-c1ccc(CNC(=O)[C@@H]2C[C@@H](O)CN2C(=O)[C@@H](NC(=O)CCCCN2CCN(Cc3ccc(-c4cc(-c5ccccc5O)nnc4N)cc3)CC2)C(C)(C)C)cc1` [I-476]: on SMARCA4, the Dmax was 50 to 70% and the DC50 was 100 to 500 nM. Besides, on SMARCA2, the Dmax was under 50% and the DC50 lay within 100 to 500 nM.

With `Cn1c(=O)n(C2CCC(=O)NC2=O)c2ccc(C#CCCNC(=O)Cc3cnc(N4C5CCC4CN(c4cc(-c6ccccc6O)nnc4N)C5)nc3)cc21` (centres unmarked) [I-295], on SMARCA4, the Dmax is under 50% and the DC50 was under 100 nM. Also, at SMARCA2, the Dmax was under 50% and the DC50 is over 1000 nM.

Turning to `Cc1ncsc1-c1ccc(CNC(=O)[C@@H]2C[C@@H](O)CN2C(=O)[C@@H](NC(=O)CN2CCC(c3nccc(N4C5CCC4CN(c4cc(-c6ccccc6O)nnc4N)C5)n3)CC2)C(C)(C)C)cc1` [I-450], at SMARCA4, the Dmax fell in the range of 50 to 70% and the DC50 lay in the range of 100 to 500 nM. Besides, at SMARCA2, the Dmax was under 50% and the DC50 lay in the range of 100 to 500 nM.
